Laboratory results: ChEMBL document CHEMBL1132729
Activity calls are given as the source filed them. No cut-off for these calls is given here.

Columns and labels:
[1] = molecular target: T1, Lipoprotein lipase (Bos taurus) (UniProt P11151); assay: Percent inhibition of compound against Lipoprotein lipase(LPL) at 10 uM was evaluated
T1 sequence (whole entry): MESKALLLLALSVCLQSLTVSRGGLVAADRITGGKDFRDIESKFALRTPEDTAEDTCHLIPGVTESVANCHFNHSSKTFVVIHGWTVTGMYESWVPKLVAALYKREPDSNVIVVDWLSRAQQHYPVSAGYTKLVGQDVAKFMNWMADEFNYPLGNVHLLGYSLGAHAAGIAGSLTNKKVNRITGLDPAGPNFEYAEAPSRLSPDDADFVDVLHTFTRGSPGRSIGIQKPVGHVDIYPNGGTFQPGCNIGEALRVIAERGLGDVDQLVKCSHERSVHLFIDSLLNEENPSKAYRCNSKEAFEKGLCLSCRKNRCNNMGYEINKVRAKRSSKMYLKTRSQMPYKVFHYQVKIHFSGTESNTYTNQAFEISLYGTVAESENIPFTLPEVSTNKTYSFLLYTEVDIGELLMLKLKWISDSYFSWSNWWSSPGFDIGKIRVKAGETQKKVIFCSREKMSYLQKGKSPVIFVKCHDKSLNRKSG

[2] = molecular target: T1, Lipoprotein lipase (Bos taurus); assay: Percent inhibition of compound against Lipoprotein lipase(LPL) at 3h was evaluated; settings: concentration not given here
[3] = molecular target: T1, Lipoprotein lipase (Bos taurus); assay: Percent inhibition of compound against Lipoprotein lipase(LPL) was evaluated; No significant inhibition

Structure (SMILES)	inhibition [1]	inhibition [2]	inhibition [3]
CCCCCCCCCCCCCCCCS(=O)(=O)F	50%	90%	
CCCCCCS(=O)(=O)ON1C(=O)CCC1=O			No inhibition
CCCCCCS(=O)(=O)Oc1ccc([N+](=O)[O-])cc1			No inhibition
CCCCCCCCCCCCS(=O)(=O)F			inactive
